Ends that are not written are not given here.
Experiments:
[1] = tested on: Jurkat T cells expressing CXCR4; assay: CXCL12 mediated migration of Jurkat T cells, transwell; assay type: cell-based; conditions: 360 μg/ml, 2 h
Description: CXCL12-CXCR4 signaling plays a crucial role in several diseases such as HIV/AIDS, cancer, leukemia and arthritis. CXCL12 expressing organs, tissues or cells can attract CXCR4 expressing tumor cells and allow metastasis. To investigate whether ALB408-423 is able to inhibit CXCL12 mediated tumor cell migration, migration assays were performed using Jurkat T cells expressing CXCR4 as model system (Princen et al., 2004, J.Virol. 78: 12996-13006). Jurkat T cells were suspended at 0.4×106 (200 μl) in medium containing 10% FBS, then the cell suspension (200 μl) was added to the upper compartment of 5 μm pore filter devices (Transwell, 24-well cell culture, Costar). Then, 600?l culture medium with or without CXCL12 (100 ng/ml) was added to the lower compartment allowing attraction of cells from the upper compartment. […] After incubation, plates were removed and 100 μl of cells that migrated to the lower compartment were either counted directly using a counting chamber or analyzed using a proliferation assay (CellTiter-Glo® Reagent, PROMEGA) as recommended by the manufacturer. […]
FIG. 16. […] After 2 hrs incubation at 37° C., the number of migrated cells in the lower compartment was detected by measuring intracellular ATP levels using CellTiter-Glo® Luminescent Cell Viability Assay kit (PROMEGA). […]

[2] = Isoelectric point of the peptide; assay type: physicochemical
CXCR4 = CXCR4 (Homo sapiens, UniProt P61073); assay: Ca2+ mobilization in CXCR4 expressing HEK293 cells (indo-1); assay type: cell-based; parameters: expressed in transfected cells
Description: Ca^2+ responses were recorded.
FIG. 17. CXCR4 antagonistic activities of ALB derivatives. […] CXCR4 or CCR5 expressing HEK293 cells were treated with CXCR4 agonist CXCL12 (10 nM) or CCR5 agonist CCL5 (20 nM), respectively, in the absence (no ALB) or presence of indicated ALB derivatives (50 μM). Calcium responses were recorded as described. Data shown are mean values±standard deviation derived from duplicates relative to peak calcium responses after treatment with agonists only (100%). […] CXCR4 expressing HEK293 cells were treated with Texas Red labeled CXCL12 (CXCL12-Tr) in the presence or absence of ALB peptides. Real-time fluorescence monitoring of ligand-receptor interactions was carried out as described. Shown are bound CXCL12-Tr levels in the presence of ALB peptides relative to CXCL12-Tr only treated cells (100% bound). Values were derived from a duplicate experiment.

[3] = tested on: X4 tropic HIV-1 variants NL4-3, P51-Sc, P59-S/27 and P34-S; conditions: TZM-bl cells
Description: 5000 TZM-bl cells were seeded in 100 μl of DMEM (10% FCS, 100 U/ml of penicillin G and 100 μg/ml of streptomycin sulfate). ALB408-423 was dissolved in PBS (10 mg/ml). One day later, 20 μl serial dilutions of ALB408-423 in PBS were added to cells and cells were subsequently infected with 0.5 ng of p24 antigen HIV-1 in a total volume of 200 μl. HIV-1 molecular clones differing in coreceptor tropism were used and generated as described (Papkalla et al., J. Virol. 76: 8455-9, 2002).
FIG. 3: Chemically synthesized ALB408-423 specifically blocks X4 tropic HIV-1 infection. TZM-bl cells containing indicated dilutions of peptide were infected with HIV-1 variants differing in their coreceptor tropism. 3 days later Gal Screen assay was used to measure infection rates. […] B) Infection rates in the presence of 500 μg/ml ALB408-423 showing that the peptide specifically blocks X4 but not R5 tropic HIV-1 infection. Data shown are mean values±standard deviation derived from triplicate infections relative to PBS containing cells (100% infection).
After 3 days, infection was detected using GalScreen assay (TROPIX) (example 1). […] In contrast, CCR5 tropic HIV-1 variants were not inhibited even in the presence of very high doses of ALB408-423 (500 μg/ml) (FIG. 3B). Due to the specific inhibition of the infection caused by X4-tropic HIV-1 variants, it is to be assumed that ALB408-423 interacts with the chemokine receptor CXCR4.
Virus stocks were first titrated on TZM-bl cells. Then TZM-bl cells containing 100 μM of peptides were infected with infectivity normalized amounts of X4, dualtropic (X4/R5) or R5 tropic HIV-1.
FIG. 10. ALB408-423 and truncated ALB derivatives specifically block X4 tropic HIV-1 infection. TZM-bl cells either containing PBS or 100 μM of indicated peptides were infected with normalized infectivities of X4, dualtropic or R5 tropic HIV-1 clones. Infection rates were measured 2 days post infection using the GalScreen assay. Shown are mean values (% of PBS treated control)±standard deviations derived from triplicate measurements.

Chain of CXCR4 (P61073 whole entry): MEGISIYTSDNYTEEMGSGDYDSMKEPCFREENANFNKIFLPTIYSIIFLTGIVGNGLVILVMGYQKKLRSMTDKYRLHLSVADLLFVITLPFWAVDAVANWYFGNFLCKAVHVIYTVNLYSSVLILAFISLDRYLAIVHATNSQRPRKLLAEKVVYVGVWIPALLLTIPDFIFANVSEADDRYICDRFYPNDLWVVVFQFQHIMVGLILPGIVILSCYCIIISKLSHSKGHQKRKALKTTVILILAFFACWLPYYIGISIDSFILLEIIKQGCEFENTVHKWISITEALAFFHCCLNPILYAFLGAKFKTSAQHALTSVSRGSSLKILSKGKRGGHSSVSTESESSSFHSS

LVRYTKKVPQVSTPTL [ALB408-423, LVRYTKKVPQVSTPTL]
block of CXCL12 induced cell migration [1]: almost completely | isoelectric point (pI) [2]: 10.3 | Ki (CXCR4): 46.4 µM | inhibition of CXCL12-evoked calcium responses (CXCR4; 50 μM peptide, HEK EGFP-CXCR4 cells): 70% | agonism: calcium response induced by the peptide alone, CXCR4 (CXCR4; 50 μM peptide, no chemokine): does not induce any calcium response | mean IC50 over all analyzed X4-tropic HIV-1 variants ([3]; 0.5 ng p24, 3 days, synthetic peptide): 24.2 µg/mL | block of infection by X4 tropic HIV-1 clones (NL4-3, P51-Sc, P34-s) ([3]; 100 μM peptide): almost completely
